Experimental data published in paper PMC6716272, “In Vivo and In Vitro Analyses of Novel Peptidomimetic Disruptors for the Serotonin 5-HT2C Receptor Interaction With Phosphatase and Tensin Homolog” (Frontiers in Pharmacology, 2019).

Tests used:
[1] = tested on: lorcaserin–saline-trained rats; assay: Two-lever drug discrimination, lorcaserin (0.75 mg/kg) vs saline; type: in vivo, rat
Method: (§1) Experimentally naïve male Sprague-Dawley rats (n = 43; Envigo, Inc.) weighing 300–325 g at the beginning of the experiment were housed two per cage in a temperature- (21–23°C) and humidity- (45–50%) controlled environment; lighting was maintained under a 12-h light–dark cycle (0700–1900 h). Rats were maintained at 80–90% of their free-feeding weights by restricting access to water. Rats received water during daily training sessions (5–6 ml/rat/session), in the afternoon several hours after training (20 min), and over the weekend (36 h). Experiments were conducted during the light phase of the light–dark cycle (between 0900 and 1200 h) and were carried out in accordance with the National Institutes of Health Guide for the Care and Use of Laboratory Animals and with the approval of the Institutional Animal Care and Use Committee at University of Texas Medical Branch.
(§2) The procedures were conducted in commercially available two-lever operant chambers (Med Associates, St. Albans, VT). Each chamber was equipped with a water-filled dispenser mounted equidistantly between two retractable response levers on the wall and housed in a light- and soundproof cubicle. Illumination came from a 28-V house light; ventilation and masking noise were provided by a ventilation fan in the right-side wall. A computer with Med-PC IV software was used to run programs and record all experimental events.
(§3) Standard two-lever, water-reinforced drug discrimination procedures were used ([Appel and Cunningham, 1986]; [Callahan and Cunningham, 1995]; [Colpaert, 1999]). Three cohorts (n = 13–16/cohort) were trained to discriminate an injection of a training drug from saline (1.0 ml/kg, i.p.) administered 15 min before start of daily (Monday–Friday) training sessions. In one cohort (n = 14), rats were trained to discriminate the training drug lorcaserin (0.75 mg/kg, 1.0 ml/kg, i.p.) from saline. In a second cohort (n = 13), rats were trained to discriminate the training drug WAY163909 (0.75 mg/kg, 1.0 ml/kg, i.p.) from saline. In the third cohort, rats (n = 16) were trained to discriminate the training drug cocaine (5 mg/kg, 1.0 ml/kg, i.p.) from saline. Two rats in the lorcaserin–saline cohort were excluded from the present study due to failure to maintain the discrimination. Rats in the WAY163909–saline cohort also participated in additional studies ([Wild et al., 2018]); the WAY163909 dose–response curve was reevaluated between studies; a washout period was allowed, and no carryover effects were observed.
(§4) During this phase, only the stimulus-appropriate (drug or saline) lever was present. Training began under a fixed ratio 1 (FR 1) schedule of water reinforcement, and the FR requirement was incremented until all animals were responding reliably under an FR 20 schedule for each experimental condition. For half of the rats, left lever responses were reinforced after training drug administration, whereas right lever responses were reinforced after saline administration; conditions were reversed for the remaining animals. During this phase of training, drug and saline were administered irregularly with the restriction that neither condition prevailed for more than three consecutive sessions.
(§5) After responding stabilized, both levers were presented simultaneously during 15-min training sessions. The rats were required to respond on the stimulus-appropriate (correct) lever to obtain water reinforcement. There were no programmed consequences for responding on the incorrect lever. This phase of training continued until the performance of all rats attained criterion (defined as mean accuracies of at least 80% stimulus-appropriate responding for 10 consecutive sessions).
(§6) Test sessions were initiated and conducted once or twice per week following attainment of criterion. Training sessions were run during the intervening days to maintain discrimination accuracy. […]

[2] = tested on: cocaine–saline-trained rats; assay: Two-lever drug discrimination, cocaine (5 mg/kg) vs saline; type: in vivo, rat
Method: as §1, §2, §3, §4, §5, §6

[3] = tested on: WAY163909–saline-trained rats; assay: Two-lever drug discrimination, WAY163909 (0.75 mg/kg) vs saline; type: in vivo, rat
Method: as §1, §2, §3, §4, §5, §6

[4] = tested on: rats; conditions: TAT-r3L4F 0.1 µmol/kg; ref Cunningham et al., 2011; Anastasio et al., 2013; cited from earlier work
From the text: (§7) Agonist binding to the 5-HT2CR results in dynamic changes in receptor conformation and induction of a variety of intracellular signaling pathways ([Berg et al., 1994]; [McGrew et al., 2002]; [Werry et al., 2005]; [Labasque et al., 2008]). Best characterized is coupling of the 5-HT2CR to Gαq/11 proteins to activate phospholipase Cβ (PLCβ), resulting in increased intracellular calcium (Cai ^2+) release, among various other signaling outcomes ([Millan et al., 2008]). One approach to selectively target the 5-HT2CR signaling is through protein–protein interactions that are selective for 5-HT2CR ove ...

[5] = effect mimicked by Ro-600175 and reversed by SB242084; ref Ji et al., 2006; cited from earlier work
From the text: as §7

[6] = tested on: PTEN; assay: PTEN lipid phosphatase activity assay (competitive ELISA for PI(4,5)P2); type: biochemical; conditions: 15 min preincubation 37°C with 1 ng/µl PTEN, then 4 µM PI(3,4,5)P3 2.25 h, two independent experiments in triplicate
Method: Lipid phosphatase activity of PTEN was quantified using a PTEN activity ELISA kit (K-4700, Echelon Biosciences, Salt Lake City, UT) following the manufacturer’s protocol. Briefly, 1 ng/µl PTEN enzyme (E-3000, Echelon Bioscience) was incubated with PTEN inhibitor SF1670 (200 µM), 1, 2, and 2 derivatives (10 µM) for 15 min at 37°C. Then, PI(3,4,5)P3 substrate was added for a final concentration of 4 µM, and the reaction was incubated at 37°C for 2.25 h. The lipid phosphatase activity of PTEN was quantified by measuring the amount of PI(4,5)P2 by competitive ELISA in which final absorbance is inversely related to the amount of PI(4,5)P2. The absorbance was measured by FlexStation3 at 450 nm (Molecular Devices). Results are represented as fold change over PTEN + PI(3,4,5)P3 alone (mean ± SD) of two independent experiments run in technical triplicates and analyzed by one-way ANOVA with a priori comparison with PTEN + PI(3,4,5)P3 alone (Dunnett’s; GraphPad Prism 7.02). All statistical analyses were conducted with an experiment-wise error rate of α = 0.05.

[7] = tested on: human unedited 5-HT2CR (h5-HT2CR-CHO cells); type: cell-based; conditions: for EMAX (%5-HT): maximum 5-HT-induced Cai2+ release in presence of 1 nM peptide derivative, 5-HT vehicle, 10^-11 to 10^-6 M, 5-HT alone = 100%, AUC normalised to crystal violet, mean ± SEM of 4–5 biological replicates, SEM; for change of 5-HT EC50 / potency versus 5-HT alone: pretreatment with 1 nM peptide; for elevation of the maximum Cai2+ release induced by 5-HT: pretreatment with peptide (1 nM), p < 0.05
[8] = tested on: human unedited 5-HT2CR (h5-HT2CR-CHO cells); conditions: ref Anastasio et al., 2013; cited from earlier work
From the text: as §7

Compound: Ac-YGRKKRRPNPDQKPRRKKKEKR-NH2 [TAT-r3L4F, rat 5-HT2CR third-loop peptide r3L4F conjugated to TAT at the N terminus]
- drug-lever responding in combination with lorcaserin (0.5 mg/kg) ([1]; combination test, i.p., TAT-r3L4F 2 µmol/kg (p < 0.05), peptide 7 2, 5 µmol/kg): enhanced drug-lever responding
- response rate in combination with lorcaserin (0.5 mg/kg) ([1]; combination test, i.p., TAT-r3L4F 2 µmol/kg, peptide 7 2, 5 µmol/kg): no change in response rates
- drug-like responding ([1]; substitution test, i.p., TAT-r3L4F 1, 2 µmol/kg, peptide 7 1, 2, 5 µmol/kg (data not shown)): < 10%
- response rate in substitution test ([1]; vs previous lorcaserin maintenance session, WAY163909 0.75 mg/kg, TAT-r3L4F 2 µmol/kg (trend for 1 µmol/kg)): significantly higher
- stimulus effects of cocaine (2.5 mg/kg) and response rate, TAT-r3L4F in the absence of lorcaserin ([2]; TAT-r3L4F 1, 2 µmol/kg i.p. 45 min before test): did not alter the stimulus effects of cocaine or the associated response rate
- cocaine-appropriate responding, TAT-r3L4F plus lorcaserin (0.5 mg/kg) before cocaine (2.5 mg/kg) ([2]; TAT-r3L4F 1, 2 µmol/kg, p < 0.05 vs cocaine alone, not statistically different from lorcaserin alone plus cocaine): significantly reduced cocaine-appropriate responding
- lever responding in substitution test (low-dose series) ([2]; TAT-r3L4F alone 1, 2 µmol/kg, lorcaserin alone 0.5 mg/kg, data not shown): saline-appropriate responding
- response rates associated with cocaine (2.5 mg/kg) ([2]; lorcaserin alone 0.5 mg/kg, or TAT-r3L4F 1, 2 µmol/kg plus lorcaserin 0.5 mg/kg, p < 0.05): significantly suppressed the response rates
- response rate in substitution test (low-dose series) ([2]; vs previous cocaine maintenance session, TAT-r3L4F alone 1, 2 µmol/kg, lorcaserin alone 0.5 mg/kg, data not shown): significant reduction in response rates
- response rate in combination with WAY163909 (0.5 mg/kg) ([3]; combination test, TAT-r3L4F 1, 2 µmol/kg i.p.): no change in response rates
- drug-lever responding in combination with WAY163909 (0.5 mg/kg) ([3]; combination test, TAT-r3L4F 1, 2 µmol/kg i.p., p < 0.05): enhanced drug-lever responding
- response rate in substitution test ([3]; lorcaserin 1 mg/kg (vs saline), TAT-r3L4F 1, 2 µmol/kg (vs previous WAY163909 maintenance session)): significantly higher
- drug-like responding ([3]; substitution test, TAT-r3L4F 1, 2 µmol/kg i.p.): < 10%
- efficacy of a subeffective dose of WAY163909 to suppress motor activity and impulsive action [4]: enhances the efficacy
- motor activity, peptide alone [4]: does not suppress motor activity on its own
- ∆9-tetrahydrocannabinol-induced conditioned place preference [5]: blocks

Compound: CC(C)(C)C(=O)Nc1ccc2c(c1)C(=O)C(=O)c1ccccc1-2 [SF1670]
- PTEN lipid phosphatase activity ([6]; 200 µM inhibitor): suppresses PTEN lipid phosphatase activity

Compound: Ac-PNQDQNAR-NH2 [compound 2, shorter eight amino acid version of h3L4F]
- EMAX (%5-HT) [7]: 118 ± 4.0%
- change of 5-HT EC50 / potency versus 5-HT alone [7]: no change in EC50
- elevation of the maximum Cai2+ release induced by 5-HT [7]: ~20%
- effect on 5-HT2CR agonist-mediated Cai2+ release [8]: enhance
- PTEN lipid phosphatase activity ([6]; 10 µM peptide): do not suppress PTEN lipid phosphatase activity

Compound: Ac-PNQDQNARRRKKKERR-NH2 [h3L4F, 16 amino acid peptide homologous to a fragment of the third intracellular loop of the human 5-HT2CR]
- EMAX (%5-HT) [7]: 131 ± 6.3%
- change of 5-HT EC50 / potency versus 5-HT alone [7]: no change in EC50
- elevation of the maximum Cai2+ release induced by 5-HT [7]: ~30%
- effect on 5-HT2CR agonist-mediated Cai2+ release [8]: enhance
- PTEN lipid phosphatase activity ([6]; 10 µM peptide): do not suppress PTEN lipid phosphatase activity
